These results are taken from US20100120867A1, “METHOD OF TREATMENT” (Novartis AG, priority 2007, published 2010).

The experiment can be described thus: Multicenter, double-blind, randomized, placebo-controlled clinical study in subjects with frequent heartburn. It counts as in vivo, human. The method, then:
A multicenter, double-blind, randomized, parallel group, placebo-controlled clinical study is carried out to investigate the safety and efficacy of lansoprazole, 15 mg (or alternatively 30 mg) once daily, in preventing frequent heartburn.
The trial population consists of subjects (male or female, at least 18 years old) with frequent heartburn, i.e. heartburn occurring a minimum of 2 or more days a week over the past month, that was untreated. A total of 576 subjects with frequent heartburn (288 per group) is randomized in order to yield 546 subjects.
The study population is divided equally between a treatment group receiving lansoprazole capsules, 15 mg (or alternatively, 30 mg) and a control group receiving placebo capsules. All statistical tests used to compare the two treatment groups are two-sided, with probability of Type I error=0.05.
Lansoprazole 15 mg (or alternatively, 30 mg) capsules or placebo are taken once daily for 14 days during the double blind treatment period.
Most measures of efficacy are derived from data recorded in the subject's IVRS diary after a daily self-assessment. Subjects are given instructions to complete the IVRS diary in the morning for the previous 24-hour period on a daily basis for all phases of the study. The diary is designed to collect information on the occurrence of daytime and nighttime heartburn episodes, maximum heartburn severity, and rescue medication consumption for the previous 24 hours. In addition, the date and time of study medication consumption are recorded.
To classify heartburn severity, subjects are instructed to use the most intense episode of the 24-hour period according to the following Intensity Scale Definitions (Table 6):
Therefore, the primary evaluation is the period between the first dose (Day 1) through the end of the double blind treatment period, i.e. Days 1-14 for 24-hour days. “No heartburn over 24 hours” on each of Days 1-14 is defined as the combined experience of daytime and nighttime heartburn. […]
This variable is analyzed as the percentage of nighttimes with the outcome of no nighttime heartburn. […]

Setting [1] is: 14-day course of therapy, randomized treatment group.

Turning to `Cc1c(OCC(F)(F)F)ccnc1C[S+]([O-])c1nc2ccccc2[nH]1` (stereo not drawn) [Lansoprazole], where the note is “15 mg once daily, 14 days”, the “efficacy in the relief of frequent heartburn compared to placebo” value is “superior in efficacy to placebo”. Moreover, under setting [1], the “proportion of 24-hour days substantially free of heartburn compared to placebo” value is “statistically significant increase” and the “proportion of nighttimes substantially free of heartburn compared to placebo” value is “statistically significant increase”.
